Source: patent publication US7713950B2, “Antibacterial 1-(4-mono-and di-halomethylsulphonylphenyl)-2-acylamino-3-fluoroproponals and preparation thereof” (Intervet Inc., priority 2003, dated 2010)
Converted amounts (≈) assume the structure as drawn.

Key:
Type in all cases: cell-based
Staphylococcus aureus = assay: Broth microdilution susceptibility testing (MIC), Staphylococcus aureus; conditions: broth microdilution (NCCLS, 2002), read-out: Minimal inhibitory concentration against Staphylococcus aureus
Description: (§1) The list is not intended, nor should it be construed, to limit the scope of this invention in any manner whatsoever.
(§2) Compounds were tested for antimicrobial activity against several bacterial stains using standard broth microdilution susceptibility testing methodology (NCCLS, 2002). […] The enhanced activity of Compound 1 is especially noteworthy.
(§3) NCCLS. 2002. Performance standards for antimicrobial disk and dilution susceptibility tests for bacteria isolated from animals; approved standard-second edition. NCCLS document M31-A2 [ISBN 1-56238-461-9]. NCCLS, 940 West Valley Road, Suite 1400, Wayne, Pa. 19087-1898 USA.

[1] = tested on: Florfenicol-resistant Pasteurella multocida; assay: Broth microdilution susceptibility testing (MIC), florfenicol-resistant Pasteurella multocida; conditions: for MIC: Pasteurella multocida, broth microdilution (NCCLS, 2002), florfenicol-resistant strain, read-out: Minimal inhibitory concentration against Florfenicol-resistant Pasteurella multocida
Description: as §1, §2, §3

Escherichia coli = assay: Broth microdilution susceptibility testing (MIC), Escherichia coli; conditions: broth microdilution (NCCLS, 2002), read-out: Minimal inhibitory concentration against Escherichia coli
Description: as §1, §2, §3

Mannheimia haemolytica = assay: Broth microdilution susceptibility testing (MIC), Mannheimia haemolytica; conditions: broth microdilution (NCCLS, 2002), read-out: Minimal inhibitory concentration against Mannheimia haemolytica
Description: as §1, §2, §3

Pasteurella multocida = assay: Broth microdilution susceptibility testing (MIC), Pasteurella multocida; conditions: broth microdilution (NCCLS, 2002), read-out: Minimal inhibitory concentration against Pasteurella multocida
Description: as §1, §2, §3

five bacterial strains = assay: Broth microdilution susceptibility testing, comparison with florfenicol over the strain panel; conditions: five bacterial strains of Table 2
Description: as §1, §2, §3

SMILES | MIC (Staphylococcus aureus) [µg/mL] | MIC [1] [µg/mL] | MIC (Escherichia coli) [µg/mL] | MIC (Mannheimia haemolytica) [µg/mL] | MIC (Pasteurella multocida) [µg/mL] | Activity relative to florfenicol against florfenicol-resistant Pasteurella multocida ([1]; versus florfenicol) [fold] | Activity compared with florfenicol over the strains tested (five bacterial strains)
O=C(N[C@H](CO)[C@H](O)c1ccc([N+](=O)[O-])cc1)C(Cl)Cl [Chloramphenicol, reference compound] | 8 (≈ 24.8 µM) | 16 (≈ 49.5 µM) | 4 (≈ 12.4 µM) | 1 (≈ 3.09 µM) | 0.25 (≈ 0.774 µM) |  | 
O=C(N[C@H](CF)[C@H](O)c1ccc(S(=O)(=O)C(F)F)cc1)C(Cl)Cl [Compound 8] | 4 (≈ 10.1 µM) | 2 (≈ 5.07 µM) | 16 (≈ 40.6 µM) | 0.5 (≈ 1.27 µM) | 0.125 (≈ 0.317 µM) |  | 
O=C(N[C@H](CF)[C@H](O)c1ccc(S(=O)(=O)CF)cc1)C(Cl)Cl [Compound 1, N-((1S,2R)-1-(Fluoromethyl)-2-{4-[(fluoromethyl)sulfonyl]phenyl}-2-hydroxyethyl)-2,2-dichloroacetamide] | 2 (≈ 5.32 µM) | 2 (≈ 5.32 µM) | 4 (≈ 10.6 µM) | 0.5 (≈ 1.33 µM) | 0.06 (≈ 0.159 µM) | 8 | more active than florfenicol for all five bacterial strains
CS(=O)(=O)c1ccc([C@@H](O)[C@@H](CF)NC(=O)C(Cl)Cl)cc1 [Florfenicol, reference compound] | 8 (≈ 22.3 µM) | 16 (≈ 44.7 µM) | 8 (≈ 22.3 µM) | 1 (≈ 2.79 µM) | 0.25 (≈ 0.698 µM) |  | 
NCC(=O)N[C@H](CF)[C@H](O)c1ccc(S(=O)(=O)CF)cc1 [Compound 7] | 64 (≈ 199 µM) | > 128 | 128 (≈ 397 µM) | 1 (≈ 3.1 µM) | 1 (≈ 3.1 µM) |  | 
CC(=O)N[C@H](CF)[C@H](O)c1ccc(S(=O)(=O)CF)cc1 [Compound 12] | > 128 | 32 (≈ 104 µM) | > 128 | 2 (≈ 6.51 µM) | 1 (≈ 3.25 µM) |  | 
O=C(N[C@H](CF)[C@H](O)c1ccc(S(=O)(=O)CF)cc1)C(F)F [Compound 9] | 8 (≈ 23.3 µM) | 8 (≈ 23.3 µM) | 4 (≈ 11.7 µM) | 0.5 (≈ 1.46 µM) | 0.25 (≈ 0.728 µM) |  | 
CS(=O)(=O)c1ccc([C@@H](O)[C@@H](CO)NC(=O)C(Cl)Cl)cc1 [Thiamphenicol, reference compound] |  |  | 64 (≈ 180 µM) | 1 (≈ 2.81 µM) | 0.25 (≈ 0.702 µM) |  | 
N#CCC(=O)N[C@H](CF)[C@H](O)c1ccc(S(=O)(=O)CF)cc1 [Compound 4] | 8 (≈ 24.1 µM) | > 128 | 16 (≈ 48.1 µM) | 0.5 (≈ 1.5 µM) | 1 (≈ 3.01 µM) |  | 
[N-]=[N+]=NCC(=O)N[C@H](CF)[C@H](O)c1ccc(S(=O)(=O)CF)cc1 [Compound 5] | 8 (≈ 23 µM) | 16 (≈ 45.9 µM) | 8 (≈ 23 µM) | 0.25 (≈ 0.718 µM) | 0.25 (≈ 0.718 µM) |  | 
O=C(N[C@H](CF)[C@H](O)c1ccc(S(=O)(=O)CF)cc1)C(F)Cl (stereo partly drawn) [Compound 11] | 2 (≈ 5.56 µM) | 4 (≈ 11.1 µM) | 4 (≈ 11.1 µM) | 0.25 (≈ 0.695 µM) | 0.25 (≈ 0.695 µM) |  | 
O=C(N[C@H](CF)[C@H](O)c1ccc(S(=O)(=O)C(Cl)Cl)cc1)C(Cl)Cl [Compound 3] | 8 (≈ 18.7 µM) | 4 (≈ 9.37 µM) | > 128 | 0.5 (≈ 1.17 µM) | 0.5 (≈ 1.17 µM) |  | 
O=C(N[C@H](CF)[C@H](O)c1ccc(S(=O)(=O)CF)cc1)C(Cl)Br (stereo partly drawn) [Compound 10] | 4 (≈ 9.51 µM) | 4 (≈ 9.51 µM) | 8 (≈ 19 µM) | 0.5 (≈ 1.19 µM) | 0.25 (≈ 0.594 µM) |  | 
O=C(N[C@H](CF)[C@H](O)c1ccc(S(=O)(=O)CF)cc1)C(F)(F)F [Compound 2] | 16 (≈ 44.3 µM) | 8 (≈ 22.1 µM) | 32 (≈ 88.6 µM) | 0.5 (≈ 1.38 µM) | 1 (≈ 2.77 µM) |  | 
C[C@@H](N)C(=O)N[C@H](CF)[C@H](O)c1ccc(S(=O)(=O)CF)cc1 [Compound 6] | 64 (≈ 190 µM) | 128 (≈ 381 µM) | 32 (≈ 95.1 µM) | 1 (≈ 2.97 µM) | 1 (≈ 2.97 µM) |  | 
